Data taken from patent US20090203800A1, “Cytostatic Composition” (priority 2008, published 2009).

Tests used:
Assay type in all cases: cell-based
Settings in all cases: 5-FU 1.0 mg/ml
[1] = system: human tumor xenograft MEXF 989 (Melanoma); assay: clonogenic assay (tumor colony assay)
Method: (§1) In the clonogenic assay (=tumor colony assay, TCA), inhibition of colony formation of tumor stem cells growing in soft agar is examined. Tumor stem cells, which are responsible for growth, the metastatic and infiltrative potential of a tumor, are prepared directly from human tumor xenografts growing in nude mice.
(§2) Cytostatic was tested at 6 concentrations. The highest concentration tested was 0.004%, as shown below, which was the maximum allowed concentration of the vehicle in the test set as 100% of Cytostatic. IMDM supplemented with 10% v/v saline solution was also used as a control vehicle.
(§3) Solid human tumor xenografts growing subcutaneously in serial passages in thymus aplastic nude mice (NMRI nu/nu strain,) were removed under sterile conditions, mechanically disaggregated and subsequently incubated with an enzyme cocktail consisting of collagenase type IV (41 U/ml) (Sigma), DNase I (125 U/ml) (Roche), hyaluronidase type III (100 U/ml) (Sigma) and dispase II (1.0 U/ml) (Roche) in RPMI 1640-Medium (Life Technologies) at 37° C. for 45 minutes. Cells were passed through sieves of 200 μm and 50 μm mesh size and washed twice with sterile PBS-buffer. The percentage of viable cells was determined in a Neubauer-hemocytometer using trypan blue exclusion.
(§4) The clonogenic assay was performed in a 24-well format according to a modified two-layer soft agar assay introduced by Hamburger & Salmon. The bottom layer consisted of 0.2 ml/well IMDM (Life Technologies) (supplemented with 20% (v/v) fetal calf serum (Sigma), 0.01% (w/v) gentamicin (Life Technologies) and 0.75% (w/v) agar). 2×10^4 to 4×10^4 cells were added to 0.2 ml of the same culture medium supplemented with 0.4% (w/v) agar and plated in 24-multiwell dishes onto the bottom layer. The test compound was applied by continuous exposure (drug overlay) in 0.2 ml culture medium. Every dish included six untreated control wells and drug-treated groups in triplicate at 6 concentrations. Cultures were incubated at 37° C. and 7.5% CO2 in a humidified atmosphere for 6-18 days and monitored closely for colony growth using an inverted microscope. Within this period, in vitro tumor growth led to the formation of colonies with a diameter of >50 μm. At the time of maximum colony formation, counts were performed with an automatic image analysis system (OMNICON 3600, Biosys GmbH). 24 hours prior to evaluation, vital colonies were stained with a sterile aqueous solution of 2-(4-iodophenyl)-3-(4-nitrophenyl)-5-phenyltetrazolium chloride (1 mg/ml, 100 μl/well) (Sigma).
(§5) Drug effects were expressed by the percentage of colony formation, obtained by comparison of the mean number of colonies in the treated wells with the mean colony count of the untreated controls (relative colony count expressed by the test-versus-control value, T/C-value [%]):
(§6) IC50- and IC70-values, being the drug concentrations necessary to inhibit colony formation by 50% (T/C=50%) and 70% (T/C=30%), respectively, were determined by plotting compound concentration versus relative colony count. Mean IC50- and IC70-values were calculated according to the formula

[2] = system: human tumor xenograft PRXF DU145 (Prostate); assay: clonogenic assay (tumor colony assay)
Method: as §1, §2, §3, §4, §5, §6

[3] = system: human tumor xenograft LXFL 529 (Lung, NSC); assay: clonogenic assay (tumor colony assay)
Method: as §1, §2, §3, §4, §5, §6

[4] = system: human tumor xenograft LXFA 289 (Lung, NSC); assay: clonogenic assay (tumor colony assay)
Method: as §1, §2, §3, §4, §5, §6

[5] = system: human tumor xenograft LXFS 650 (Lung, SC); assay: clonogenic assay (tumor colony assay)
Method: as §1, §2, §3, §4, §5, §6

[6] = system: human tumor xenograft RXF 631 (Kidney); assay: clonogenic assay (tumor colony assay)
Method: as §1, §2, §3, §4, §5, §6

[7] = system: human tumor xenograft OVXF 899 (Ovary); assay: clonogenic assay (tumor colony assay)
Method: as §1, §2, §3, §4, §5, §6

[8] = system: human tumor xenograft LIXF 575 (Liver); assay: clonogenic assay (tumor colony assay)
Method: as §1, §2, §3, §4, §5, §6

[9] = system: human tumor xenograft CXF 1103 (Colon); assay: clonogenic assay (tumor colony assay)
Method: as §1, §2, §3, §4, §5, §6

[10] = system: human tumor xenograft MEXF 514 (Melanoma); assay: clonogenic assay (tumor colony assay)
Method: as §1, §2, §3, §4, §5, §6

[11] = system: human tumor xenograft PRXF MRIH1579 (Prostate); assay: clonogenic assay (tumor colony assay)
Method: as §1, §2, §3, §4, §5, §6

[12] = system: human tumor xenograft PXF 1118 (Pleuramesothelioma); assay: clonogenic assay (tumor colony assay)
Method: as §1, §2, §3, §4, §5, §6

[13] = system: human tumor xenograft RXF 944LX (Kidney); assay: clonogenic assay (tumor colony assay)
Method: as §1, §2, §3, §4, §5, §6

[14] = system: human tumor xenograft MAXF 401 (Breast); assay: clonogenic assay (tumor colony assay)
Method: as §1, §2, §3, §4, §5, §6

[15] = system: human tumor xenograft LXFA 526 (Lung, NSC); assay: clonogenic assay (tumor colony assay)
Method: as §1, §2, §3, §4, §5, §6

[16] = system: human tumor xenograft LXFS 615 (Lung, SC); assay: clonogenic assay (tumor colony assay)
Method: as §1, §2, §3, §4, §5, §6

[17] = system: human tumor xenograft HNXF 536 (Head & neck); assay: clonogenic assay (tumor colony assay)
Method: as §1, §2, §3, §4, §5, §6

[18] = system: human tumor xenograft OVXF 550 (Ovary); assay: clonogenic assay (tumor colony assay)
Method: as §1, §2, §3, §4, §5, §6

[19] = system: human tumor xenograft MEXF 1539 (Melanoma); assay: clonogenic assay (tumor colony assay)
Method: as §1, §2, §3, §4, §5, §6

[20] = system: human tumor xenograft MAXF 1384 (Breast); assay: clonogenic assay (tumor colony assay)
Method: as §1, §2, §3, §4, §5, §6

[21] = system: human tumor xenograft SXF 627 (Sarcoma); assay: clonogenic assay (tumor colony assay)
Method: as §1, §2, §3, §4, §5, §6

[22] = system: human tumor xenograft GXF 1172 (Stomach); assay: clonogenic assay (tumor colony assay)
Method: as §1, §2, §3, §4, §5, §6

[23] = system: human tumor xenograft BXF 1218 (Bladder); assay: clonogenic assay (tumor colony assay)
Method: as §1, §2, §3, §4, §5, §6

[24] = system: human tumor xenograft MAXF 1322 (Breast); assay: clonogenic assay (tumor colony assay)
Method: as §1, §2, §3, §4, §5, §6

[25] = system: human tumor xenograft LXFL 1647 (Lung, NSC); assay: clonogenic assay (tumor colony assay)
Method: as §1, §2, §3, §4, §5, §6

[26] = system: human tumor xenograft CXF 280 (Colon); assay: clonogenic assay (tumor colony assay)
Method: as §1, §2, §3, §4, §5, §6

[27] = system: human tumor xenograft PAXF 736 (Pancreas); assay: clonogenic assay (tumor colony assay)
Method: as §1, §2, §3, §4, §5, §6

[28] = system: 27 human tumor xenografts; assay: clonogenic assay, whole test panel
Method: The antitumor efficacy of cytostatic composition as described above was evaluated in 27 human tumor xenografts in vitro using a clonogenic assay. The tumor test panel comprised 1 to 4 models of 15 different human tumor types, which were bladder cancer, colon, gastric, head and neck, liver, non small cell lung (adeno and large cell), small cell lung, mammary, ovary, pancreatic, prostate and renal cancer as well as melanoma, pleuramesothelioma, and sarcoma. The cytostatic composition was studied at 6 concentrations ranging from 0.001% to 100.0%. Antitumor effects were recorded as inhibition of colony formation in relation to untreated controls (T/C-values).
In the clonogenic assay (=tumor colony assay, TCA), inhibition of colony formation of tumor stem cells growing in soft agar is examined. […]
The clonogenic assay was performed in a 24-well format according to a modified two-layer soft agar assay introduced by Hamburger & Salmon. […] Cultures were incubated at 37° C. and 7.5% CO2 in a humidified atmosphere for 6-18 days and monitored closely for colony growth using an inverted microscope. […]
with x the specific tumor model, and n the total number of tumor models studied. If an IC50- or IC70-value could not be determined within the examined dose range (because a compound was either too active or lacked activity), the lowest or highest concentration studied was used for the calculation. […]

O=c1[nH]cc(F)c(=O)[nH]1 [5-FU, 5-fluorouracil]
5-FU control, T/C [%] [1]: 0% | 5-FU control, T/C [%] class [1]: +++ (+++ (T/C ≦ 10)) | 5-FU control, T/C [%] [2]: 1% | 5-FU control, T/C [%] class [2]: +++ (+++ (T/C ≦ 10)) | 5-FU control, T/C [%] [3]: 0% | 5-FU control, T/C [%] class [3]: +++ (+++ (T/C ≦ 10)) | 5-FU control, T/C [%] [4]: 12% | 5-FU control, T/C [%] class [4]: ++ (++ (10 < T/C < 30)) | 5-FU control, T/C [%] [5]: 0% | 5-FU control, T/C [%] class [5]: +++ (+++ (T/C ≦ 10)) | 5-FU control, T/C [%] [6]: 4% | 5-FU control, T/C [%] class [6]: +++ (+++ (T/C ≦ 10)) | 5-FU control, T/C [%] [7]: 31% | 5-FU control, T/C [%] class [7]: + (+ (30 ≦ T/C ≦ 50)) | 5-FU control, T/C [%] [8]: 4% | 5-FU control, T/C [%] class [8]: +++ (+++ (T/C ≦ 10)) | 5-FU control, T/C [%] [9]: 10% | 5-FU control, T/C [%] class [9]: +++ (+++ (T/C ≦ 10)) | 5-FU control, T/C [%] [10]: 4% | 5-FU control, T/C [%] class [10]: +++ (+++ (T/C ≦ 10)) | 5-FU control, T/C [%] [11]: 7% | 5-FU control, T/C [%] class [11]: +++ (+++ (T/C ≦ 10)) | 5-FU control, T/C [%] [12]: 2% | 5-FU control, T/C [%] class [12]: +++ (+++ (T/C ≦ 10)) | 5-FU control, T/C [%] [13]: 1% | 5-FU control, T/C [%] class [13]: +++ (+++ (T/C ≦ 10)) | 5-FU control, T/C [%] [14]: 4% | 5-FU control, T/C [%] class [14]: +++ (+++ (T/C ≦ 10)) | 5-FU control, T/C [%] [15]: 2% | 5-FU control, T/C [%] class [15]: +++ (+++ (T/C ≦ 10)) | 5-FU control, T/C [%] [16]: 14% | 5-FU control, T/C [%] class [16]: ++ (++ (10 < T/C < 30)) | 5-FU control, T/C [%] [17]: 9% | 5-FU control, T/C [%] class [17]: +++ (+++ (T/C ≦ 10)) | 5-FU control, T/C [%] [18]: 33% | 5-FU control, T/C [%] class [18]: + (+ (30 ≦ T/C ≦ 50)) | 5-FU control, T/C [%] [19]: 0% | 5-FU control, T/C [%] class [19]: +++ (+++ (T/C ≦ 10)) | 5-FU control, T/C [%] [20]: 4% | 5-FU control, T/C [%] class [20]: +++ (+++ (T/C ≦ 10)) | 5-FU control, T/C [%] [21]: 2% | 5-FU control, T/C [%] class [21]: +++ (+++ (T/C ≦ 10)) | 5-FU control, T/C [%] [22]: 15% | 5-FU control, T/C [%] class [22]: ++ (++ (10 < T/C < 30)) | 5-FU control, T/C [%] [23]: 2% | 5-FU control, T/C [%] class [23]: +++ (+++ (T/C ≦ 10)) | 5-FU control, T/C [%] [24]: 0% | 5-FU control, T/C [%] class [24]: +++ (+++ (T/C ≦ 10)) | 5-FU control, T/C [%] [25]: 5% | 5-FU control, T/C [%] class [25]: +++ (+++ (T/C ≦ 10)) | 5-FU control, T/C [%] [26]: 21% | 5-FU control, T/C [%] class [26]: ++ (++ (10 < T/C < 30)) | 5-FU control, T/C [%] [27]: 5% | 5-FU control, T/C [%] class [27]: +++ (+++ (T/C ≦ 10)) | antitumor activity of positive control of growth inhibition [28]: good antitumor activity
